Laboratory results from PMC10683028 (Journal of Medicinal Chemistry, 2023).
Values after ≈ are worked out from the molar mass of the structure shown. Like-named read-outs stand apart in the source and are kept apart here.

Tests used:
[1] = pH 7.4
Procedure: Test compounds were prepared as 0.5 mM solutions in 50:50 acetonitrile:water and analyzed by reversed-phase HPLC-UV (wavelength 254 nm) using a Phenomenex Luna C18 100 Å 150 × 4.6 mm 5 μm column with a gradient of aqueous phase (50 mM ammonium acetate, pH 7.4) and mobile phase (acetonitrile) as described.[41],[42]

in vitro = details: PAMPA, pH 7.4
Procedure: (§1) In vitro ADME experiments were performed exactly as reported.[38]−[40]

[2] = mouse
Procedure: Murine pharmacokinetic studies were performed exactly as reported.[40]

physchem = details: aqueous medium at pH 7.4, pH 7.4
Procedure: as §1

| SMILES | CHI-logDpH7.4 [1] | Papp (in vitro) | other results |
| --- | --- | --- | --- |
| O=C(NCCc1ccccc1)c1nc(-c2ccccc2)no1 [compound 4, 3-Phenyl-N-(2-phenylethyl)-1,2,4-oxadiazole-5-carboxamide] | 3.2 |  |  |
| COc1ccc(-c2noc(C(=O)NCCc3cccnc3)n2)cc1OC [compound 5, 3-(3,4-Dimethoxyphenyl)-N-[2-(3-pyridyl)ethyl]-1,2,4-oxadiazole-5-carboxamide] | 1.8 | 7.7 ×10⁻⁶ cm/s |  |
| COc1ccc(-c2noc(C(=O)NCCc3ccc(C(=O)O)cc3)n2)cc1OC [compound 6, 4-[2-[[3-(3,4-Dimethoxyphenyl)-1,2,4-oxadiazole-5-carbonyl]amino]ethyl]benzoic Acid] |  | 0.6 ×10⁻⁶ cm/s |  |
| COc1ccc(-c2noc(C(=O)NCC(C)(C)c3ccccc3)n2)cc1OC [compound 7, 3-(3,4-Dimethoxyphenyl)-N-(2-methyl-2-phenyl-propyl)-1,2,4-oxadiazole-5-carboxamide] | 3.7 |  |  |
| COc1ccc(-c2noc(C(=O)NC[C@H](C)c3ccccc3)n2)cc1OC [compound 8, 3-(3,4-Dimethoxyphenyl)-N-[(2R)-2-phenylpropyl]-1,2,4-oxadiazole-5-carboxamide] | 3.3 | 5.5 ×10⁻⁶ cm/s |  |
| COc1ccc(-c2noc(C(=O)NCCc3ccc(C(N)=O)cc3)n2)cc1OC [compound 11, N-[2-(4-Carbamoylphenyl)ethyl]-3-(3,4-dimethoxyphenyl)-1,2,4-oxadiazole-5-carboxamide] | 1.7 | 2.9 ×10⁻⁶ cm/s |  |
| CNC(=O)c1ccc(CCNC(=O)c2nc(-c3ccc(OC)c(OC)c3)no2)cc1 [compound 12, 3-(3,4-Dimethoxyphenyl)-N-[2-[4-(methylcarbamoyl)phenyl]ethyl]-1,2,4-oxadiazole-5-carboxamide] | 1.8 | 4.8 ×10⁻⁶ cm/s |  |
| COc1ccc(-c2noc(C(=O)NCCc3ccc(C(=O)N4CCC4)cc3)n2)cc1OC [compound 14, N-[2-[4-(Azetidine-1-carbonyl)phenyl]ethyl]-3-(3,4-dimethoxyphenyl)-1,2,4-oxadiazole-5-carboxamide] | 2.1 | 7.1 ×10⁻⁶ cm/s |  |
| COc1ccc(-c2noc(C(=O)NCCc3ccc(C(=O)N4CC(OC)C4)cc3)n2)cc1OC [compound 15, 3-(3,4-Dimethoxyphenyl)-N-(4-(3-methoxyazetidine-1-carbonyl)phenethyl)-1,2,4-oxadiazole-5-carboxamide] | 2.1 |  | AUC0–480 ([2]; IV 3 mg/kg): 56 µg·min/mL; T1/2 ([2]; IV 3 mg/kg): 18 min; Vdss ([2]; IV 3 mg/kg): 1.1 L/kg; AUC0–480 ([2]; PO 200 mg/kg): 48 µg·min/mL; Cmax ([2]; PO 200 mg/kg): 151 ng/mL; F ([2]; PO 200 mg/kg): 1.5%; Tmax ([2]; PO 200 mg/kg): 120 min |
| COc1ccc(-c2noc(C(=O)NCCc3ccc(C(=O)N4CC(F)C4)cc3)n2)cc1OC [compound 16, 3-(3,4-Dimethoxyphenyl)-N-(4-(3-fluoroazetidine-1-carbonyl)phenethyl)-1,2,4-oxadiazole-5-carboxamide] | 2.2 | 8.5 ×10⁻⁶ cm/s |  |
| COc1ccc(-c2noc(C(=O)NCCc3ccc(C(=O)N4CC(F)(F)C4)cc3)n2)cc1OC [compound 17, N-(4-(3,3-Difluoroazetidine-1-carbonyl)phenethyl)-3-(3,4-dimethoxyphenyl)-1,2,4-oxadiazole-5-carboxamide] | 2.6 | 6.3 ×10⁻⁶ cm/s |  |
| COc1cccc(CCNC(=O)c2nc(-c3ccc(OC)c(OC)c3)no2)c1 [compound 19, 3-(3,4-Dimethoxyphenyl)-N-[2-(3-methoxyphenyl)ethyl]-1,2,4-oxadiazole-5-carboxamide] | 2.9 |  |  |
| COc1ccc(-c2noc(C(=O)NCCc3ccc(C(=O)N4CCC4)nc3)n2)cc1OC [compound 25, N-(2-(6-(Azetidine-1-carbonyl)pyridin-3-yl)ethyl)-3-(3,4-dimethoxyphenyl)-1,2,4-oxadiazole-5-carboxamide] | 1.9 | 5.4 ×10⁻⁶ cm/s |  |
| COc1ccc(-c2noc(C(=O)NC(C#N)Cc3ccc(C(=O)N4CCC4)cc3)n2)cc1OC (stereo not drawn) [compound 33, N-(2-(4-(Azetidine-1-carbonyl)phenyl)-1-cyanoethyl)-3-(3,4-dimethoxyphenyl)-1,2,4-oxadiazole-5-carboxamide] | 2.1 | 2.8 ×10⁻⁶ cm/s |  |
| COc1ccc(-c2noc(C(=O)NC(C#N)Cc3ccccc3)n2)cc1OC (stereo not drawn) [compound 38, N-(1-Cyano-2-phenylethyl)-3-(3,4-dimethoxyphenyl)-1,2,4-oxadiazole-5-carboxamide] | 3.1 | 7.2 ×10⁻⁶ cm/s |  |
| COc1ccc(-c2noc(C(=O)NC(C#N)Cc3ccc(C(=O)N4CC5(COC5)C4)cc3)n2)cc1OC (stereo not drawn) [compound 44, N-(2-(4-(2-Oxa-6-azaspiro[3.3]heptane-6-carbonyl)phenyl)-1-cyanoethyl)-3-(3,4-dimethoxyphenyl)-1,2,4-oxadiazole-5-carboxamide] | 2.1 | 0.6 ×10⁻⁶ cm/s | AUC0–480 ([2]; PO 10 mg/kg): 5 µg·min/mL; Cmax ([2]; PO 10 mg/kg): 56 ng/mL; Tmax ([2]; PO 10 mg/kg): 300 min |
| COc1ccc(-c2noc(C(=O)NC(C#N)Cc3ccc(C(=O)N4CC(OC)C4)cc3)n2)cc1OCC1(O)CC1 (stereo not drawn) [compound 45, N-[1-Cyano-2-[4-(3-methoxyazetidine-1-carbonyl)phenyl]ethyl]-3-[3-[(1-hydroxycyclopropyl)methoxy]-4-methoxyphenyl]-1,2,4-oxadiazole-5-carboxamide] |  |  | solubility (physchem): 152 µM (≈ 83.2 µg/mL) |
| COc1ccc(CCNC(=O)c2nc(-c3ccc(OC)c(OC)c3)no2)cc1OC [compound 50, 3-(3,4-dimethoxyphenyl)-N-[2-(3,4-dimethoxyphenyl)ethyl]-1,2,4-oxadiazole-5-carboxamide] | 2.5 | 7.4 ×10⁻⁶ cm/s |  |

| SMILES | CHI-logDpH7.4 [1] | Papp (in vitro) | other results |
| --- | --- | --- | --- |
| COc1ccc(CCN(C)C(=O)c2nc(-c3ccc(OC)c(OC)c3)no2)cc1OC [compound 51, 3-(3,4-Dimethoxyphenyl)-N-[2-(3,4-dimethoxyphenyl)ethyl]-N-methyl-1,2,4-oxadiazole-5-carboxamide] | 2.6 |  |  |
| COc1ccc(-c2noc(CNCCc3ccccc3)n2)cc1OC [compound 53, N-[[3-(3,4-Dimethoxyphenyl)-1,2,4-oxadiazol-5-yl]methyl]-2-phenyl-ethanamine] | 2.9 |  |  |
| COc1ccc(-c2noc(C(=O)NCCc3ccc(C(=O)N4CCC4)cc3)n2)cc1F [compound 61, N-(4-(Azetidine-1-carbonyl)phenethyl)-3-(3-fluoro-4-methoxyphenyl)-1,2,4-oxadiazole-5-carboxamide] | 2.6 |  |  |
| COc1cc(-c2noc(C(=O)NCCc3ccc(C(=O)N4CCC4)cc3)n2)ccc1F [compound 62, N-(4-(Azetidine-1-carbonyl)phenethyl)-3-(4-fluoro-3-methoxyphenyl)-1,2,4-oxadiazole-5-carboxamide] | 2.6 |  |  |
| O=C(NCCc1ccc(C(=O)N2CCC2)cc1)c1nc(-c2ccc3nc[nH]c3c2)no1 [compound 63, N-(4-(Azetidine-1-carbonyl)phenethyl)-3-(1H-benzo[d]imidazol-6-yl)-1,2,4-oxadiazole-5-carboxamide] | 1.3 | 0.7 ×10⁻⁶ cm/s |  |
| O=C(NCCc1ccc(C(=O)N2CCC2)cc1)c1nc(-c2ccc3ccoc3c2)no1 [compound 64, N-(4-(Azetidine-1-carbonyl)phenethyl)-3-(benzofuran-6-yl)-1,2,4-oxadiazole-5-carboxamide] | 2.5 | 7 ×10⁻⁶ cm/s |  |
| O=C(NCCc1ccc(C(=O)N2CCC2)cc1)c1nc(-c2ccc3cc[nH]c3c2)no1 [compound 65, N-(4-(Azetidine-1-carbonyl)phenethyl)-3-(1H-indol-6-yl)-1,2,4-oxadiazole-5-carboxamide] | 2.3 | 4.4 ×10⁻⁶ cm/s |  |
| O=C(NCCc1ccc(C(=O)N2CCC2)cc1)c1nc(-c2ccc3cn[nH]c3c2)no1 [compound 66, N-(4-(Azetidine-1-carbonyl)phenethyl)-3-(1H-indazol-6-yl)-1,2,4-oxadiazole-5-carboxamide] | 1.6 | 5.5 ×10⁻⁶ cm/s |  |
| COc1cccc(-c2noc(C(=O)NCCc3ccc(C(=O)N4CCC4)cc3)n2)c1 [compound 67, N-(4-(Azetidine-1-carbonyl)phenethyl)-3-(3-methoxyphenyl)-1,2,4-oxadiazole-5-carboxamide] | 2.4 | 10.1 ×10⁻⁶ cm/s |  |
| COc1ccc(-c2noc(C(=O)NCCc3ccc(C(=O)N4CC(OC)C4)cc3)n2)cc1OC1CCC1 [compound 78, 3-[3-(Cyclobutoxy)-4-methoxy-phenyl]-N-[2-[4-(3-methoxyazetidine-1-carbonyl)phenyl]ethyl]-1,2,4-oxadiazole-5-carboxamide] | 2.9 |  |  |
| COc1ccc(-c2noc(C(=O)NCCc3ccc(C(=O)N4CC(OC)C4)cc3)n2)cc1OC1CC1 [compound 79, 3-(3-Cyclopropoxy-4-methoxyphenyl)-N-(4-(3-methoxyazetidine-1-carbonyl)phenethyl)-1,2,4-oxadiazole-5-carboxamide] | 2.6 | 4.6 ×10⁻⁶ cm/s |  |
| COc1ccc(-c2noc(C(=O)NCCc3ccc(C(=O)N4CC(OC)C4)cc3)n2)cc1OCC1(O)CC1 [compound 80, 3-(3-((1-Hydroxycyclopropyl)methoxy)-4-methoxyphenyl)-N-(4-(3-methoxyazetidine-1-carbonyl)phenethyl)-1,2,4-oxadiazole-5-carboxamide] |  |  | AUC0–480 ([2]; IV 3 mg/kg): 81 µg·min/mL; T1/2 ([2]; IV 3 mg/kg): 24 min; Vdss ([2]; IV 3 mg/kg): 0.9 L/kg; AUC0–480 ([2]; PO 10 mg/kg): 4 µg·min/mL; Cmax ([2]; PO 10 mg/kg): 61 ng/mL; F ([2]; PO 10 mg/kg): 1.5%; Tmax ([2]; PO 10 mg/kg): 30 min |
| COc1ccc(-c2nc(C(=O)NCCc3ccccc3)no2)cc1OC [compound 90, 5-(3,4-Dimethoxyphenyl)-N-phenethyl-1,2,4-oxadiazole-3-carboxamide] | 2.9 |  |  |
| COc1ccc(-c2n[nH]c(C(=O)NCCc3ccc(C(=O)N4CCC4)cc3)n2)cc1OC [compound 101, N-(4-(Azetidine-1-carbonyl)phenethyl)-3-(3,4-dimethoxyphenyl)-1H-1,2,4-triazole-5-carboxamide] | 1.3 |  |  |
| COc1ccc(-c2noc(C(=O)NCCc3ccccc3)n2)cc1OC [compound 106] |  |  | solubility (physchem): 51 µM (≈ 18 µg/mL) |
| COc1ccc(CCNC(=O)c2nc(-c3ccccc3)no2)cc1OC [compound 107] | 2.8 |  |  |
| COc1ccc(-c2noc(C(=O)NCCN3CCOCC3)n2)cc1OC [compound 108] | 1.4 |  |  |
